Values quoted from earlier work, collected in patent publication US20240374634A1, “NUTRACEUTICAL OPHTHALMIC COMPOSITION FOR THE TREATMENT OF RETINAL PATHOLOGIES HAVING A NEOVASCULAR COMPONENT” (Laboratoires THEA, priority 2018, published 2024).

Details: 300 patients over three years, after a significant increase in DHA in cells

Q: With `CC/C=C\C/C=C\C/C=C\C/C=C\C/C=C\C/C=C\CCC(=O)O` [DHA, Docosahexaenoic acid (DHA)] as the compound, how does the “reduction in the risks of developing neovascular AMD” value read?
A: 68%
